Key:
Experiment in all cases: Post-emergence test experiment (greenhouse pot, spray at 2-3 leaf stage)
Assay type in all cases: in vivo
Conditions in all cases: 1000 g/ha; post-emergence spray at 2-3 leaf stage; assessed after 3 weeks; fresh weight inhibition rate
Digitaria sanguinalis = test system: Digitaria sanguinalis
Procedure, shortened: (§1)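 Weed seeds sown in soil-filled pots in greenhouse, sprayed at 2-3 leaf stage (2 weeks after sowing) with compound in acetone/tween-80 plus methyl oleate emulsible concentrate (1.5 L/ha) diluted in water. Fresh-weight growth inhibition scored after 3 weeks on 0-5 scale (5: >85%, 0: <5%).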

Abutilon theophrasti = test system: Abutilon theophrasti
Procedure, shortened: as §1

Echinochloa crusgalli = test system: Echinochloa crusgalli
Procedure, shortened: as §1

Galium spurium = test system: Galium spurium
Procedure, shortened: as §1

Monochoria vaginalis = test system: Monochoria vaginalis
Procedure, shortened: as §1

Compound | Activity level (growth inhibition rate) Digitaria sanguinalis (Digitaria sanguinalis) | Activity level (growth inhibition rate) Abutilon theophrasti (Abutilon theophrasti) | Activity level (growth inhibition rate) Echinochloa crusgalli (Echinochloa crusgalli) | Activity level (growth inhibition rate) Galium spurium (Galium spurium) | Activity level (growth inhibition rate) Monochoria Vaginalis (Monochoria vaginalis)
CC(Oc1nc(F)c(Cl)c(N)c1Cl)C(=O)OCc1ccno1 (stereo not shown) [Compound 144] | 5 (Level 5: the growth inhibition rate is greater than 85%) | 5 (Level 5: the growth inhibition rate is greater than 85%) | 5 (Level 5: the growth inhibition rate is greater than 85%) | 5 (Level 5: the growth inhibition rate is greater than 85%) | 5 (Level 5: the growth inhibition rate is greater than 85%)
CC(Oc1nc(F)c(Cl)c(N)c1Cl)C(=O)OCc1cc(F)ccc1F (stereo not shown) [Compound 79] | 5 (Level 5: the growth inhibition rate is greater than 85%) | 5 (Level 5: the growth inhibition rate is greater than 85%) | 5 (Level 5: the growth inhibition rate is greater than 85%) | 5 (Level 5: the growth inhibition rate is greater than 85%) | 5 (Level 5: the growth inhibition rate is greater than 85%)
CC(Oc1nc(F)c(Cl)c(N)c1Cl)C(=O)SCc1nnco1 (stereo not shown) [Compound 149] | 5 (Level 5: the growth inhibition rate is greater than 85%) | 5 (Level 5: the growth inhibition rate is greater than 85%) | 5 (Level 5: the growth inhibition rate is greater than 85%) | 5 (Level 5: the growth inhibition rate is greater than 85%) | 5 (Level 5: the growth inhibition rate is greater than 85%)
CC(Oc1nc(F)c(Cl)c(N)c1Cl)C(=O)SCc1cc(F)cc(Cl)c1 (stereo not shown) [Compound 81] | 5 (Level 5: the growth inhibition rate is greater than 85%) | 5 (Level 5: the growth inhibition rate is greater than 85%) | 5 (Level 5: the growth inhibition rate is greater than 85%) | 5 (Level 5: the growth inhibition rate is greater than 85%) | 5 (Level 5: the growth inhibition rate is greater than 85%)
COc1cccc(F)c1CSC(=O)C(C)Oc1nc(F)c(Cl)c(N)c1Cl (stereo not shown) [Compound 84] | 5 (Level 5: the growth inhibition rate is greater than 85%) | 5 (Level 5: the growth inhibition rate is greater than 85%) | 5 (Level 5: the growth inhibition rate is greater than 85%) | 5 (Level 5: the growth inhibition rate is greater than 85%) | 5 (Level 5: the growth inhibition rate is greater than 85%)
CCNc1c(Cl)c(F)nc(OC(C)C(=O)SCc2ccccc2)c1Cl (stereo not shown) [Compound 191] | 5 (Level 5: the growth inhibition rate is greater than 85%) | 5 (Level 5: the growth inhibition rate is greater than 85%) | 5 (Level 5: the growth inhibition rate is greater than 85%) | 5 (Level 5: the growth inhibition rate is greater than 85%) | 5 (Level 5: the growth inhibition rate is greater than 85%)
Cc1ccc(COC(=O)C(C)Oc2nc(F)c(Cl)c(N)c2Cl)cc1 (stereo not shown) [Compound 197] | 5 (Level 5: the growth inhibition rate is greater than 85%) | 5 (Level 5: the growth inhibition rate is greater than 85%) | 5 (Level 5: the growth inhibition rate is greater than 85%) | 5 (Level 5: the growth inhibition rate is greater than 85%) | 5 (Level 5: the growth inhibition rate is greater than 85%)
CC(Oc1nc(C(F)(F)F)c(F)c(N)c1C(C)C)C(=O)OCc1ccccc1 (stereo not shown) [Compound 11] | 5 (Level 5: the growth inhibition rate is greater than 85%) | 5 (Level 5: the growth inhibition rate is greater than 85%) | 5 (Level 5: the growth inhibition rate is greater than 85%) | 5 (Level 5: the growth inhibition rate is greater than 85%) | 5 (Level 5: the growth inhibition rate is greater than 85%)
CC(Oc1nc(F)c(Cl)c(N)c1Cl)C(=O)OCc1ncns1 (stereo not shown) [Compound 167] | 5 (Level 5: the growth inhibition rate is greater than 85%) | 5 (Level 5: the growth inhibition rate is greater than 85%) | 5 (Level 5: the growth inhibition rate is greater than 85%) | 5 (Level 5: the growth inhibition rate is greater than 85%) | 5 (Level 5: the growth inhibition rate is greater than 85%)
CC(Oc1nc(F)c(Cl)c(N)c1Cl)C(=O)OCc1ccc(C(F)(F)F)cc1 (stereo not shown) [Compound 210] | 5 (Level 5: the growth inhibition rate is greater than 85%) | 5 (Level 5: the growth inhibition rate is greater than 85%) | 5 (Level 5: the growth inhibition rate is greater than 85%) | 5 (Level 5: the growth inhibition rate is greater than 85%) | 5 (Level 5: the growth inhibition rate is greater than 85%)
CC(Oc1nc(F)c(Cl)c(N)c1Cl)C(=O)SCc1ccc2ncoc2c1 (stereo not shown) [Compound 174] | 5 (Level 5: the growth inhibition rate is greater than 85%) | 5 (Level 5: the growth inhibition rate is greater than 85%) | 5 (Level 5: the growth inhibition rate is greater than 85%) | 5 (Level 5: the growth inhibition rate is greater than 85%) | 5 (Level 5: the growth inhibition rate is greater than 85%)
CC(Oc1nc(F)c(Cl)c(N)c1Cl)C(=O)OCc1cccc(Cl)c1Cl (stereo not shown) [Compound 80] | 5 (Level 5: the growth inhibition rate is greater than 85%) | 5 (Level 5: the growth inhibition rate is greater than 85%) | 5 (Level 5: the growth inhibition rate is greater than 85%) | 5 (Level 5: the growth inhibition rate is greater than 85%) | 5 (Level 5: the growth inhibition rate is greater than 85%)
CC(Oc1nc(F)c(Cl)c(N)c1Cl)C(=O)OCc1cccc(O)c1 (stereo not shown) [Compound 89] | 5 (Level 5: the growth inhibition rate is greater than 85%) | 5 (Level 5: the growth inhibition rate is greater than 85%) | 5 (Level 5: the growth inhibition rate is greater than 85%) | 5 (Level 5: the growth inhibition rate is greater than 85%) | 5 (Level 5: the growth inhibition rate is greater than 85%)
CC(Oc1nc(F)c(Cl)c(N)c1Cl)C(=O)OCc1ccc2nccnc2c1 (stereo not shown) [Compound 186] | 5 (Level 5: the growth inhibition rate is greater than 85%) | 5 (Level 5: the growth inhibition rate is greater than 85%) | 5 (Level 5: the growth inhibition rate is greater than 85%) | 5 (Level 5: the growth inhibition rate is greater than 85%) | 5 (Level 5: the growth inhibition rate is greater than 85%)
CC(Oc1nc(I)c(Cl)c(N)c1Cl)C(=O)SCc1ccccc1 (stereo not shown) [Compound 17] | 5 (Level 5: the growth inhibition rate is greater than 85%) | 5 (Level 5: the growth inhibition rate is greater than 85%) | 5 (Level 5: the growth inhibition rate is greater than 85%) | 5 (Level 5: the growth inhibition rate is greater than 85%) | 5 (Level 5: the growth inhibition rate is greater than 85%)
CC(Oc1nc(F)c(Cl)c(N)c1Cl)C(=O)OCc1cccc(CC(N)=O)c1 (stereo not shown) [Compound 101] | 5 (Level 5: the growth inhibition rate is greater than 85%) | 5 (Level 5: the growth inhibition rate is greater than 85%) | 5 (Level 5: the growth inhibition rate is greater than 85%) | 5 (Level 5: the growth inhibition rate is greater than 85%) | 5 (Level 5: the growth inhibition rate is greater than 85%)
CC(Oc1nc(F)c(Cl)c(N)c1Cl)C(=O)OCc1cccc(C(F)(F)F)c1 (stereo not shown) [Compound 209] | 5 (Level 5: the growth inhibition rate is greater than 85%) | 5 (Level 5: the growth inhibition rate is greater than 85%) | 5 (Level 5: the growth inhibition rate is greater than 85%) | 5 (Level 5: the growth inhibition rate is greater than 85%) | 5 (Level 5: the growth inhibition rate is greater than 85%)

Source: patent US12049450B2, “Pyridyloxy-carboxylate derivative and preparation method therefor, herbicidal composition, and use” (Qingdao Kingagroot Chemical Compound Co., Ltd., priority 2018, dated 2024)
